Source: patent US20230167479A1, “RESEARCH INTO ANTIMICROBIAL RESISTANCE BY THE FIELD FLOW FRACTIONATION TECHNIQUE” (UNIVERSITÉ DE LIMOGES, priority 2020, published 2023)
≈ marks a conversion by molar mass, not a printed value.

Assays:
Assay type in all cases: cell-based
[1] = test system: E. coli strain ATCC 25922; assay: SdFFF elution-profile sensitivity test, protocol of Example 2 / FIG. 4; conditions: for percentage of variation in the retention factor PΔR: sensitive strain, 4 mg/ml ampicillin vs control, significance threshold 10%
Method: (§1) The results of the antimicrobial resistance analysis are expected starting 18-26 hours after the sample was cultured on agar.
(§2) The field-flow fractionation device is set according to patent EP1679124. The device comprises an injection system where the sample is taken, the tubing bringing the sample from the injector to the separation channel via a first rotary joint, the separation channel contained in a centrifugation bowl, the rotation of which is ensured by an electric motor itself controlled manually or via a suitable computer device, thus allowing control of the intensity of the multigravitational field, the tubing bringing the separated species from the channel to the detector via the second rotary joint, and finally the detector.
(§3) Bacterial colonies were incubated in a Mueller-Hinton (MH) culture medium with an inoculum of 0.5 McFarland in the absence or in the presence of antibiotic, for 2 hours at 37° C. and under stirring. The liquid medium MH is the reference medium used for the reference method for determining MIC values, called the dilution method in a liquid medium.
(§4) After incubation for 2 h, the culture medium was centrifuged and then taken up in a volume of 0.5 ml of PBS.
(§5) According to the handlings shown in FIG. 5, the calculation of the percentage of variation in the retention factor or PΔR is carried out as follows: ?
(§6) Example 2: A new analysis protocol was established according to FIG. 4, consistent with the clinical implementation of conventional antibiograms, making it possible to reduce to 26 hours post-sampling/isolating the time for obtaining the test results.
(§7) Thus, such assays were carried out directly on bacterial suspensions, obtained from colonies of the E. coli strain ATCC 25922 and ATCC 35218 cultured for 16-24 hours on agar medium, and incubated for 2 hours in the presence or in the absence of antibiotic (Ampicillin, FIGS. 5A/B).

[2] = test system: E. coli strain ATCC 35218; assay: as above; conditions: for percentage of variation in the retention factor PΔR: resistant strain, 4 mg/ml ampicillin vs control, significance threshold 10%
Method: as §1, §2, §3, §4, §5, §6, §7

[3] = test system: E. coli ATCC EC 25922; assay: minimum inhibitory concentration; conditions: Escherichia coli, ATCCEC25922; concentration said to correspond to the MIC
[4] = test system: E. coli strain ATCC 25922; assay: SdFFF elution-profile sensitivity test, protocol of Example 1 / FIG. 1; conditions: significance threshold 10%
Method: The results of the antimicrobial resistance analysis are expected starting 40 hours after the sample was cultured on agar.
as §2, §3, §4
Example 1: Results of resistance tests of the E. coli strain ATCC 25922 to various molecules, using SdFFF according to the present invention. […]

[5] = 4 mg/ml ampicillin, PΔR compared with 10% threshold

| SMILES | sensitivity/resistance of the strain to the antimicrobial [1, 5] | percentage of variation in the retention factor PΔR [1] [%] | percentage of variation in the retention factor PΔR ([1]; listed as Ampicillin) | sensitivity/resistance of the strain to the antimicrobial [2, 5] | PΔR ([2]; resistant strain incubated with 8 mg/ml ampicillin) | percentage of variation in the retention factor PΔR [2] [%] | percentage of variation in the retention factor PΔR ([2]; listed as Ampicillin) | MIC [3] [µg/mL] | PΔR ([4]; 0.03 µg/ml chlortetracycline vs control) [%] | percentage of variation in the retention factor PΔR ([4]; 3 µg/ml of kanamycin vs control) [%] |
| --- | --- | --- | --- | --- | --- | --- | --- | --- | --- | --- |
| CC1(C)S[C@@H]2[C@H](NC(=O)[C@H](N)c3ccccc3)C(=O)N2[C@H]1C(=O)O [ampicillin, Ampicillin] | sensitive | 12.70 | ≈ 13% | resistant | ≈ 7% | 4.50 | ≈ 5% | – | – | – |
| CN(C)[C@@H]1C(O)=C(C(N)=O)C(=O)[C@@]2(O)C(O)=C3C(=O)c4c(O)ccc(Cl)c4[C@@](C)(O)[C@H]3C[C@@H]12 [chlortetracycline, Chlortetracycline] | – | – | – | – | – | – | – | 0.03 (≈ 0.0626 µM) | 22 | – |
| NC[C@H]1O[C@H](O[C@H]2[C@H](O)[C@@H](O[C@H]3O[C@H](CO)[C@@H](O)[C@H](N)[C@H]3O)[C@H](N)C[C@@H]2N)[C@H](O)[C@@H](O)[C@@H]1O [kanamycin] | – | – | – | – | – | – | – | 3 (≈ 6.19 µM) | – | 11.2 |
